{
  "source": "paper PMC10848157",
  "about": "“Assessing NH300094, a novel dopamine and serotonin receptor modulator with cognitive enhancement property for treating schizophrenia” (Frontiers in Pharmacology, 2024)",
  "key": {"[1]": {"target": "T1, 5-HT1A receptor (Homo sapiens, UniProt P08908)", "T1 sequence (P08908 1-422)": "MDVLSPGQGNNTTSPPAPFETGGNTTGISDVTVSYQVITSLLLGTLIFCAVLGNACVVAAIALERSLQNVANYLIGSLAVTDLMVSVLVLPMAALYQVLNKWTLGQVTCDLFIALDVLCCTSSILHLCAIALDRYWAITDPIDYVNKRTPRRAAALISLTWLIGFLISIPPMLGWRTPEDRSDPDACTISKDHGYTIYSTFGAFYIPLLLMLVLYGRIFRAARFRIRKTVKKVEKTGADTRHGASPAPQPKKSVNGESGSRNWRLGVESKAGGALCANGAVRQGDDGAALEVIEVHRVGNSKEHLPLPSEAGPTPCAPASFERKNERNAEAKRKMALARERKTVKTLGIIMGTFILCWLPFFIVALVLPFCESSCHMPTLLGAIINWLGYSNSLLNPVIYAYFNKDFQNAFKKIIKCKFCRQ", "assay": "5-HT1A receptor functional assay (cAMP assay, antagonist)", "type": "cell-based", "conditions": "antagonist activity, CHO-K1/5-HT1A cells, read-out: 5HT1AR, IC50"}, "[2]": {"system": "male ICR mice", "assay": "APO-induced climbing in mice"}, "[3]": {"target": "D2S receptor (Homo sapiens, UniProt P14416)", "sequence (P14416 1-414 isoform P14416-2)": "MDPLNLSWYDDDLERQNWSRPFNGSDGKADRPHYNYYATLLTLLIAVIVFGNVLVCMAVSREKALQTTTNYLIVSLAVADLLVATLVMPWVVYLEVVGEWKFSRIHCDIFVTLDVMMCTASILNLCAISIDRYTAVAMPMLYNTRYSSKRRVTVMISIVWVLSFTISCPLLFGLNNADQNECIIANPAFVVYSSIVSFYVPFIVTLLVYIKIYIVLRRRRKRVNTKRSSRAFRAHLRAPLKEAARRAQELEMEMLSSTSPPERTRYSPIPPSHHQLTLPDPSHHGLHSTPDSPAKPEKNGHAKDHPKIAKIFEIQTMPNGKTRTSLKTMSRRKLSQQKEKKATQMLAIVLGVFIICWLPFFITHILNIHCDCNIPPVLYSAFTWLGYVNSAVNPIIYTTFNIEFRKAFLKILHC", "assay": "D2S receptor functional assay (cAMP assay, antagonist)", "type": "cell-based", "conditions": "antagonist activity, CHO-K1/D2 cells, read-out: D2SR, IC50"}, "[4]": {"system": "male ICR mice", "assay": "MK-801-induced hyperactivity in mice", "type": "in vivo", "conditions": "single oral dose", "protocol": "Immediately after injection with either saline or MK-801 (0.3 mg/kg, i.p.), the mice were placed into the test chambers (29 cm × 29 cm × 30 cm) for 60 min of locomotion recording using a tracking and computerized analysis system (TopScan Version 3.00, Clever Sys Inc., Leesburg, VA)."}, "[5]": {"system": "male ICR mice", "assay": "DOI-induced head twitch in mice"}, "[6]": {"target": "T2, 5-HT7 receptor (Homo sapiens, UniProt P34969)", "T2 construct": "host or cells: HEK293/5-HT7", "T2 sequence (P34969 whole entry)": "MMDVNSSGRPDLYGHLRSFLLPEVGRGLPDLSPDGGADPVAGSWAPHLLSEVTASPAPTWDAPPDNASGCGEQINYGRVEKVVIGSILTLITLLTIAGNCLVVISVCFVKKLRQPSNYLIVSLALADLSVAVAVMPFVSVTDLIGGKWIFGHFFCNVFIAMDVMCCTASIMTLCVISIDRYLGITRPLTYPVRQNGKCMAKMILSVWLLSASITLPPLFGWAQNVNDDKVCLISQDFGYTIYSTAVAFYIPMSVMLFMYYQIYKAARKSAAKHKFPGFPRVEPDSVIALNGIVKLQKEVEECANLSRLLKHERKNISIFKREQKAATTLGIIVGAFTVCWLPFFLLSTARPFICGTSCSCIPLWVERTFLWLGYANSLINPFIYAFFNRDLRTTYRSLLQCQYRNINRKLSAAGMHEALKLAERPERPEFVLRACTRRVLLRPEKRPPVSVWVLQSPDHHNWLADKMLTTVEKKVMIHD", "assay": "5-HT7 receptor functional assay (Bright-Glo Luciferase assay system)", "type": "cell-based", "conditions": "HEK293/5-HT7 cells, read-out: 5HT7R, IC50"}, "[7]": {"system": "male ICR mice", "conditions": "p.o."}, "[8]": {"target": "5-HT2A receptor (Homo sapiens, UniProt P28223)", "sequence (P28223 whole entry)": "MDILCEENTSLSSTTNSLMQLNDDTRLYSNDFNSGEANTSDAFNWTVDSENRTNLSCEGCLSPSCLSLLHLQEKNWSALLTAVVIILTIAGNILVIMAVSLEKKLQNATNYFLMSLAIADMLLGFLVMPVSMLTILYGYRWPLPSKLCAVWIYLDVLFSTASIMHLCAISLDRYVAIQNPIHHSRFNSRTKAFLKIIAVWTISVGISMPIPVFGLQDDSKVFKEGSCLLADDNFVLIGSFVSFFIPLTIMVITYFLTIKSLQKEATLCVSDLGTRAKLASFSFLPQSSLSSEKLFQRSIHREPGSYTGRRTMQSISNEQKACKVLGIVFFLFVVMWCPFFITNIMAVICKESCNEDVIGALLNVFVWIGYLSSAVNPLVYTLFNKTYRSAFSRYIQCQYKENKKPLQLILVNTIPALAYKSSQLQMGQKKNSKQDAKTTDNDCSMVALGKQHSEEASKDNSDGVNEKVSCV", "assay": "5-HT2A receptor functional assay (calcium flow, FLIPR, antagonist)", "type": "cell-based"}, "[9]": {"target": "5-HT1B receptor (Homo sapiens, UniProt P28222)", "sequence (P28222 whole entry)": "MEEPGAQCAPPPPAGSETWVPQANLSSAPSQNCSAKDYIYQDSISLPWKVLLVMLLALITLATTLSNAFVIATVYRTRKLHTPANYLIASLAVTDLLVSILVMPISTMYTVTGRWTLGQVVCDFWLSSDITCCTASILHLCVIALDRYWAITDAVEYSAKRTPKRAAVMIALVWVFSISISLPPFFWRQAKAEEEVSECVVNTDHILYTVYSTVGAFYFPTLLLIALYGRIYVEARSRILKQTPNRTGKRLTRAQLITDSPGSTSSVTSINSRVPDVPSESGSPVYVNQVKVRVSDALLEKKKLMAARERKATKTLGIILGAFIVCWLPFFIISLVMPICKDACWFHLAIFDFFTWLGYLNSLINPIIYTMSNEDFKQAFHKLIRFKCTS", "assay": "5-HT1B receptor functional assay (cAMP assay, inverse agonist)", "type": "cell-based", "conditions": "inverse agonist activity, CHO-K1/5-HT1B cells, read-out: 5HT1BR, EC50"}, "[10]": {"target": "T3, M1 receptor (Homo sapiens, UniProt P11229)", "T3 sequence (P11229 1-460)": "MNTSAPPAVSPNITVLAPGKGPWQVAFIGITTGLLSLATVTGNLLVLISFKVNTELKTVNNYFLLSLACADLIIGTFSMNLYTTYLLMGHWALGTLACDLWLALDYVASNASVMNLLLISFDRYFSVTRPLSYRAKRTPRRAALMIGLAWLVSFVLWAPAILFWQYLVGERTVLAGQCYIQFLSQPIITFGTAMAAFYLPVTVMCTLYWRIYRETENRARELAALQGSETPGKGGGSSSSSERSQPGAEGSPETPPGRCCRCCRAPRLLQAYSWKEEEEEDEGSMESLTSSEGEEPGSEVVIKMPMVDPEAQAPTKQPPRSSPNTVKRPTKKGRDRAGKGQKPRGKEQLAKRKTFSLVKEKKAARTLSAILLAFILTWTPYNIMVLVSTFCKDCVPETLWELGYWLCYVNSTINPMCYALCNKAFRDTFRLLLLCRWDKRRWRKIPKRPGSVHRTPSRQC", "assay": "M1 receptor functional assay (calcium flow, FLIPR)", "type": "cell-based", "conditions": "CHO-K1/M1 cells, read-out: M1R, IC50"}, "[11]": {"system": "male Wistar rats", "assay": "Conditioned avoidance response test in rats", "type": "in vivo", "conditions": "Rattus norvegicus, single oral dose, read-out: ED50, inhibition of conditioned avoidance response", "source_text": "Shuttle-box Avoidance Test Video Analysis System (DigBehv-SBG, Shanghai Jiliang Software Technology Co. Ltd.) were used to assess the rats conditioned avoidance response.\nPhase I: The rats responded to the conditioned stimulus (auditory and visual) by training with foot shock reinforcement. Briefly, rats were placed into the CAR shuttle boxes for a 5-min habituation followed by 30 trials presented on a 20-s variable interval (20–30 s) stimulus. Each rats were subjected to a conditioned stimulus which consisted of 10s presentation of light and white noise, and then followed by a scrambled 1.5 mA foot shock for 10 s. […] Rats with avoidance rates greater than 70% for 3 consecutive days were included in this study post-training.\nPhase II: The qualified rats were randomly divided into 7 groups. […] The procedure in the testing phase was the same as the Phase I described. The number of avoidances, escapes, and escape failures were recorded."}, "[12]": {"target": "T4, Alpha2A receptor (Homo sapiens, UniProt P08913)", "T4 construct": "expressed in transfected cells; host or cells: HEK293/Alpha2A (constructed by Shanghai shujing Biopharma)", "T4 sequence (P08913 1-465)": "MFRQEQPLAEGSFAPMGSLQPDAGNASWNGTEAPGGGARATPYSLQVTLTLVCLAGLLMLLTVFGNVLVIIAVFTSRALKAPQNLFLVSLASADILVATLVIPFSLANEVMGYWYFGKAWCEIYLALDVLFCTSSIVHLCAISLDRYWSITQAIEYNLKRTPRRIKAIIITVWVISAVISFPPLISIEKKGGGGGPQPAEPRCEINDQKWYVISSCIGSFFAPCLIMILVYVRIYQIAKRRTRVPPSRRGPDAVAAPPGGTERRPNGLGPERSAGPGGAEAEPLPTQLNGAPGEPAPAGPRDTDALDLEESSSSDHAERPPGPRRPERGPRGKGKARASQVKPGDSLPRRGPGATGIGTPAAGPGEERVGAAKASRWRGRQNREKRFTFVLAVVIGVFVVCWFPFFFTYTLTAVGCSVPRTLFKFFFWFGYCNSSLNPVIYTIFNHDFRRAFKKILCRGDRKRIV", "assay": "Alpha2A receptor functional assay (cAMP assay)", "type": "cell-based", "conditions": "HEK293/Alpha2A cells, read-out: Alpha2AR, IC50"}, "[13]": {"assay": "in vivo", "conditions": "male, ICR, mouse, po"}, "[14]": {"conditions": "single oral dose, male ICR mice"}},
  "data": [
    {"smiles": "O=C1CCc2cc(OCCCN3CCC(c4noc5cc(F)ccc45)CC3)cc3c2N1CC3", "note": "[NH300094, 8-(3-(4-(6-fluorobenzo [d]isoxazol-3-yl)piperidin-1-yl)propoxy)-1,2,5,6-tetrahydro-4H-pyrrolo [3,2,1-ij] quinolin-4-one]", "values": [
      {"measurement": "IC50", "setting": "[1]", "result": "85.6 ± 61.5", "unit": "nM"},
      {"measurement": "ED50", "setting": "[2]; Mus musculus, read-out: ED50, inhibition of APO-induced climbing", "result": "~0.29", "unit": "mg/kg"},
      {"measurement": "MED, APO-induced climbing", "setting": "[2]; [14]", "result": 0.3, "unit": "mg/kg"},
      {"measurement": "IC50", "setting": "[3]", "result": "11.7 ± 9.38", "unit": "nM"},
      {"measurement": "ED50", "setting": "[4]; Mus musculus, MK-801 0.3 mg/kg i.p., read-out: ED50, inhibition of MK-801-induced hyperactivity", "result": "~0.07", "unit": "mg/kg"},
      {"measurement": "Minimum effective dose (MED), MK-801-induced hyperactivity", "setting": "[4]", "result": 0.03, "unit": "mg/kg"},
      {"measurement": "ED50", "setting": "[5]; Mus musculus, po, read-out: ED50, inhibition of DOI-induced head twitch, single oral dose, male ICR mice, DOI 1 mg/kg", "result": "~0.007", "unit": "mg/kg"},
      {"measurement": "MED, DOI-induced head twitch", "setting": "[5]; [14]", "result": 0.003, "unit": "mg/kg"},
      {"measurement": "IC50", "setting": "[6]", "result": 5520, "unit": "nM"},
      {"measurement": "minimal dose that induced catalepsy", "setting": "[7]", "result": 3, "unit": "mg/kg"},
      {"measurement": "antagonistic activities ratio of 5-HT2AR and D2R (IC50 ratio)", "setting": "[8]; IC50 5-HT2AR / IC50 D2R", "result": 0.45},
      {"measurement": "IC50", "setting": "[8]; antagonist activity, calcium flow FLIPR, CHO-K1/5-HT2A cells, read-out: 5HT2AR, IC50", "result": "0.47 ± 0.79", "unit": "nM"},
      {"measurement": "EC50", "setting": "[9]", "result": "28.4 ± 12.5", "unit": "nM"},
      {"measurement": "IC50", "setting": "[10]", "result": 3520, "unit": "nM"},
      {"measurement": "ED50", "setting": "[11]", "result": "~1.02", "unit": "mg/kg"},
      {"measurement": "IC50", "setting": "[12]", "result": 314, "unit": "nM"},
      {"measurement": "ED50", "setting": "[13]", "result": 6.73, "unit": "mg/kg"}
    ]}
  ]
}
